Measured values taken from US20230159527A1, “COMPOUNDS AS BCL-2 INHIBITORS” (Fochon Pharmaceuticals, Ltd., priority 2020, published 2023).

Assays:
Format in all cases: cell-based
Toledo cells = test: Cell proliferation assay, Toledo cells (MTS, 72 h); conditions: Homo sapiens, Toledo cells, MTS, read-out: Toledo IC50
Outline: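 IC50 was derived from 490 nm absorbance after a 2 h MTS step. Before that, compounds at 1.5–10000 nM final (nine points) acted on Toledo cells for 72 h at 37 °C, 5% CO2. Cells were seeded at 30000/well in 10% FBS RPMI-1640 and rested 4 h before dosing.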

RS4;11 cells = test: Cell proliferation assay, RS4;11 cells (MTS, 72 h); conditions: Homo sapiens, RS4;11 cell proliferation
Outline: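 RS4;11 cells (30000/well, RPMI-1640 plus 10% FBS) treated with compounds at 1.5-10000 nM for 72 h at 37° C, 5% CO2. Viability by MTS (2 h), absorbance at 490 nm with 650 nm reference; IC50 from proliferation inhibition.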

DoHH2 cells = test: Cell proliferation assay, DoHH2 cells (MTS, 120 h); conditions: Homo sapiens, DOHH-2
Outline: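 DoHH2 cells in RPMI-1640 with 10% FBS were plated at 5000/well and rested 4 h. They were then exposed to compound at nine final concentrations (10000 to 1.5 nM) for 120 h at 37 °C. Viability was read by MTS (2 h, A490) and IC50 derived by curve fitting.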

O=C(NS(=O)(=O)c1cc2c(c([N+](=O)[O-])c1)O[C@H](CN1CCOCC1)CO2)c1ccc(N2CCC3(CC2)CC(N2CCC[C@H]2c2ccccc2C2CC2)C3)cc1Oc1cnc2[nH]ccc2c1 (single isomer, unassigned) [Example E-38, 2-((1H-pyrrolo [2,3-b]pyridin-5-yl)oxy)-4-(2-((R or S)-2-(2-cyclopropylphenyl)pyrrolidin-1-yl)-7-azaspiro[3.5]nonan-7-yl)-N-(((R)-2-(morpholinomethyl)-8-nitro-2,3-dihydrobenzo [b][1,4]dioxin-6-yl)sulfonyl) benzamide]
IC50 (Toledo cells): 1 nM | IC50 (RS4;11 cells): ≤ 1 nM | IC50 (DoHH2 cells): ≤ 1 nM

CC(C)c1ccccc1[C@@H]1CCCN1C1CC2(CCN(c3ccc(C(=O)NS(=O)(=O)c4cc5c(c([N+](=O)[O-])c4)O[C@H](CN4CCOCC4)CO5)c(Oc4cnc5[nH]ccc5c4)c3)CC2)C1 (single isomer, unassigned) [Example E-39, 2-((1H-pyrrolo [2,3-b]pyridin-5-yl)oxy)-4-(2-((R or S)-2-(2-isopropylphenyl)pyrrolidin-1-yl)-7-azaspiro[3.5]nonan-7-yl)-N-(((R)-2-(morpholinomethyl)-8-nitro-2,3-dihydrobenzo [b][1,4]dioxin-6-yl)sulfonyl) benzamide]
IC50 (Toledo cells): 1 nM | IC50 (RS4;11 cells): ≤ 1 nM | IC50 (DoHH2 cells): ≤ 1 nM

CC(C)c1ccccc1[C@@H]1COCCN1C1CC2(CCN(c3ccc(C(=O)NS(=O)(=O)c4cc5c(c([N+](=O)[O-])c4)O[C@H](CN4CCOCC4)CO5)c(Oc4cnc5[nH]ccc5c4)c3)CC2)C1 (single isomer, unassigned) [Example E-40, 2-((1H-pyrrolo [2,3-b]pyridin-5-yl)oxy)-4-(2-((R or S)-3-(2-isopropylphenyl)morpholino)-7-azaspiro[3.5]nonan-7-yl)-N-(((R)-2-(morpholinomethyl)-8-nitro-2,3-dihydrobenzo [b][1,4]dioxin-6-yl)sulfonyl) benzamide]
IC50 (Toledo cells): 1 nM | IC50 (RS4;11 cells): ≤ 1 nM | IC50 (DoHH2 cells): ≤ 1 nM

O=C(NS(=O)(=O)c1cnc(NCC2CCOCC2)c([N+](=O)[O-])c1)c1ccc(N2CCC3(CC2)CC(N2CCC[C@@H]2c2ccccc2C2CC2)C3)cc1Oc1cnc2[nH]ccc2c1 [Example A-3b, (R)-2-((1H-pyrrolo[2,3-b]pyridin-5-yl)oxy)-4-(2-(2-(2-cyclopropyl-phenyl)pyrrolidin-1-yl)-7-azaspiro [3.5]nonan-7-yl)-N-((5-nitro-6-(((tetrahydro-2H-pyran-4-yl)methyl)amino)pyridin-3-yl)sulfonyl) benzamide]
IC50 (Toledo cells): 1 nM | IC50 (RS4;11 cells): ≤ 1 nM | IC50 (DoHH2 cells): ≤ 1 nM

CC(C)c1ccccc1[C@H]1CCCN1C1CC2(CCN(c3ccc(C(=O)NS(=O)(=O)c4cnc(NCC5CCOCC5)c([N+](=O)[O-])c4)c(Oc4cnc5[nH]ccc5c4)c3)CC2)C1 [Example A-5b, (R)-2-((1H-pyrrolo[2,3-b]pyridin-5-yl)oxy)-4-(2-(2-(2-isopropylphenyl)pyrrolidin-1-yl)-7-azaspiro[3.5]nonan-7-yl)-N-((5-nitro-6-(((tetrahydro-2H-pyran-4-yl)methyl)amino)pyridin-3-yl)sulfonyl) benzamide]
IC50 (Toledo cells): 1 nM | IC50 (RS4;11 cells): ≤ 1 nM | IC50 (DoHH2 cells): ≤ 1 nM

CC(C)c1ccccc1[C@H]1CCCN1C1CC2(CCN(c3ccc(C(=O)NS(=O)(=O)c4cnc(NC[C@H]5CC[C@@](C)(O)CC5)c([N+](=O)[O-])c4)c(Oc4cnc5[nH]ccc5c4)c3)CC2)C1 [Example A-7a, 2-((1H-pyrrolo[2,3-b]pyridin-5-yl)oxy)-N-((6-((((1s,4s)-4-hydroxy-4-methylcyclohexyl)methyl)amino)-5-nitropyridin-3-yl)sulfonyl)-4-(2-((R)-2-(2-isopropylphenyl)pyrrolidin-1-yl)-7-azaspiro[3.5]nonan-7-yl)benzamide]
IC50 (Toledo cells): 1 nM | IC50 (RS4;11 cells): ≤ 1 nM | IC50 (DoHH2 cells): ≤ 1 nM

CC(C)c1ccccc1[C@H]1CCCN1C1CC2(CCN(c3ccc(C(=O)NS(=O)(=O)c4cnc(NC[C@H]5CC[C@](C)(O)CC5)c([N+](=O)[O-])c4)c(Oc4cnc5[nH]ccc5c4)c3)CC2)C1 [Example A-7b]
IC50 (Toledo cells): 1 nM | IC50 (RS4;11 cells): ≤ 1 nM | IC50 (DoHH2 cells): ≤ 1 nM
